Drawing on patent publication US9975878B2, “Substituted triazine BMI-1 inhibitors” (PTC Therapeutics, Inc., priority 2013, dated 2018), this text covers EC50 and melting point for eight molecules.

The test system of series [1] is Bmi-1 protein. The experiment in a line: Sandwich ELISA Assay: Bmi-1 protein level in HT-1080 cells treated with test compounds. In kind it is cell-based. A digest of the protocol:
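HT-1080 cells exposed to compounds (final DMSO 0.5%) for 40-48 h at 37° C, 5% CO2, then lysed. Bmi-1 quantified by sandwich ELISA (mouse anti-Bmi-1 capture, rabbit anti-Bmi-1 detection, HRP anti-rabbit, TMB), read at OD450 with OD570 reference, against recombinant GST-Bmi-1 standard curve (0-8000 pg/mL).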

Turning to `Nc1nc(Nc2ccc(OC(F)(F)F)cc2)nc(-n2c(C3CC3)nc3c(F)cc(F)cc32)n1` [Cpd 92, 6-(2-cyclopropyl-4,6-difluoro-1H-benzimidazol-1-yl)-N-[4-(trifluoromethoxy)phenyl]-1,3,5-triazine-2,4-diamine], the melting point was in the range of 213 to 215 °C. The molecule further came in with an EC50 in series [1] of 100 to 3000 nM.
`Nc1nc(Nc2ccc(C(F)(F)F)cc2)nc(-n2c(C(F)F)nc3ccccc32)n1` [Cpd 102, 6-[2-(difluoromethyl)-1H-benzimidazol-1-yl]-N-[4-(trifluoromethyl)phenyl]-1,3,5-triazine-2,4-diamine]: the melting point fell in the range of 197 to 199 °C. The EC50 in series [1] was 10 to 100 nM.
For the molecule `Nc1nc(Nc2ccc(OC(F)F)cc2)nc(-n2c(C(F)F)nc3ccccc32)n1` [Cpd 103, N-[4-(difluoromethoxy)phenyl]-6-[2-(difluoromethyl)-1H-benzimidazol-1-yl]-1,3,5-triazine-2,4-diamine], the melting point was in the range of 197 to 199 °C. In series [1], this molecule had an EC50 of 10 to 100 nM.
The like results for `Nc1nc(Nc2ccc(OC(F)F)c(F)c2)nc(-n2c(C(F)F)nc3ccccc32)n1` [Cpd 104, N-[4-(difluoromethoxy)-3-fluorophenyl]-6-[2-(difluoromethyl)-1H-benzimidazol-1-yl]-1,3,5-triazine-2,4-diamine] were, in that order, 201 to 203 °C and 10 to 100 nM.
Molecule `Nc1nc(Nc2ccc(OC(F)(F)F)cc2)nc(-n2c(C(F)F)nc3ccccc32)n1` [Cpd 106, 6-[2-(difluoromethyl)-1H-benzimidazol-1-yl]-N-[4-(trifluoromethoxy)phenyl]-1,3,5-triazine-2,4-diamine] showed a melting point of 138 to 139 °C. Besides, the EC50 in series [1] is 10 to 100 nM.
On the same counts, the results for `Nc1nc(Nc2ccc(OC(F)F)cc2)nc(-n2c(CF)nc3ccccc32)n1` [Cpd 108, N-[4-(difluoromethoxy)phenyl]-6-[2-(fluoromethyl)-1H-benzimidazol-1-yl]-1,3,5-triazine-2,4-diamine] are 166 to 168 °C and 10 to 100 nM.
With `Nc1nc(Nc2ccc(OC(F)F)c(F)c2)nc(-n2c(CF)nc3ccccc32)n1` [Cpd 109, N-[4-(difluoromethoxy)-3-fluorophenyl]-6-[2-(fluoromethyl)-1H-benzimidazol-1-yl]-1,3,5-triazine-2,4-diamine], the melting point was 166 to 168 °C. In series [1], this molecule came in with an EC50 of 10 to 100 nM.
On the same counts, the results for `Nc1nc(Nc2ccc(C(F)(F)F)nc2)nc(-n2c(CF)nc3ccccc32)n1` [Cpd 111, 6-[2-(fluoromethyl)-1H-benzimidazol-1-yl]-N-[6-(trifluoromethyl)pyridin-3-yl]-1,3,5-triazine-2,4-diamine] are 178 to 180 °C and 100 to 3000 nM.
